The values below come from paper PMC10983001, “Development of Cytotoxic GW7604-Zeise’s Salt Conjugates as Multitarget Compounds with Selectivity for Estrogen Receptor- Positive Tumor Cells” (Journal of Medicinal Chemistry, 2024).

One data set concerns TSA-201 cells. Nature of the data set: MTT assay of metabolic activity, noncancerous TSA-201. The format is cell-based, human. The settings on record: 72 h, MTT; read-out: IC50 TSA-210. Here is the method: (§1) The GW7604-Alk-PtCl3 complexes (with exclusion of GW7604-Prop-PtCl3) were investigated for cytotoxic effects in SKBr3 (ER-negative, COX-2-positive, Figure 6), MCF-7 (ERα-positive, COX-negative, Figure 6), and noncancerous TSA-201 (human embryonal kidney) cells at concentrations of 10–30 μM using an established MTT (3-(4,5-dimethylthiazol-2-yl)-2,5-diphenyltetrazolium bromide) assay.[60],[69]
(§2) After incubation for 72 h, the amounts of surviving, metabolically active cells were quantified based on their ability to transform the water-soluble yellow dye MTT to a purple formazan, which can be analyzed by UV–vis spectroscopy.
(§3) The exponentially growing cells were seeded at a density of 1750 (MCF-7), 2000 (SKBr3), and 1250 (TSA-201) cells/well into clear flat-bottom 96-well plates in triplicate. Following 24 h of incubation at 37 °C in a humidified atmosphere (5% CO2/95% air), the compounds [freshly prepared stock solutions in DMF, diluted with DMEM to the desired concentration (final DMF concentration of 0.1% (v/v))] were added to reach the indicated concentrations. After another 72 h of incubation, the cellular metabolic activity was measured employing an MTT assay. By adding predissolved MTT reagent in PBS at a final concentration of 0.5 mg/mL, the metabolic activity can be determined via an enzymatic conversion to a purple formazan salt. After 3 h, the medium was aspirated, and 200 μL of DMSO was added to dissolve the formed formazan crystals. The absorbance was measured at 570 and 690 nm (turbidity assessment) using an EnSpire plate reader (PerkinElmer, Waltham, MA, USA). Solvent-treated cells without a compound served as the positive control. Metabolic activity was calculated by the following equation [drawing 1]
A general note: Tetrazolium dyes change colour on reduction, which living cells bring about.

The test system of another data set is MCF-7 cells. Nature of the data set: MTT assay of metabolic activity, MCF-7. The class given is cell-based, human. The settings on record: 72 h, MTT; read-out: IC50 MCF-7. Here is the method:
as §1, §2, §3

The next data set concerns SKBr3 cells. In words: MTT assay of metabolic activity, SKBr3. The format is cell-based, human. The note with it: 72 h, MTT. As for the experimental part:
as §1, §2, §3

Another data set deals with COX-2. Further details: method as in PMID 29848978. The note with it: comparable concentration (10 μM); cited from earlier work.
Data set [1] is described as follows: Stability in organic solutions (1H NMR). The note with it: DMSO-d6, measured after 5 min / immediately after dissolution. The format is physicochemical. Here is the method:
Furthermore, it needs to be clarified whether organic solvent molecules are capable of ligand exchange reactions at the PtCl3 unit and form corresponding reaction/degradation products of the GW7604-Alk-PtCl3 complexes. Therefore, ^1H NMR experiments were performed with noncoordinating [e.g., acetone-d6, methanol-d4] and coordinating [e.g., acetonitrile-d3 , DMF-d7, dimethyl sulfoxide-d6 (DMSO-d6)] solvents. It should further be assessed whether the solvents are suitable for preparing stock solutions for structural characterization or in vitro testing.
The solutions (concentrations of 4.5–5.0 mM) were stored in NMR tubes at room temperature (rt) after being purged with argon.

The subject of the next data set is COX-1. Further details: method as in PMID 29848978. The note with it: 10 μM, incubation time 10 min; cited from earlier work.
The next data set deals with tumor cells. Further details: method as in PMID 25604474. The settings on record: cited from earlier work.
A further data set has as its target T1, human recombinant COX-2 (Homo sapiens, UniProt P35354).
T1 construct: purchased Cayman Chemicals
T1 sequence (P35354 18-604): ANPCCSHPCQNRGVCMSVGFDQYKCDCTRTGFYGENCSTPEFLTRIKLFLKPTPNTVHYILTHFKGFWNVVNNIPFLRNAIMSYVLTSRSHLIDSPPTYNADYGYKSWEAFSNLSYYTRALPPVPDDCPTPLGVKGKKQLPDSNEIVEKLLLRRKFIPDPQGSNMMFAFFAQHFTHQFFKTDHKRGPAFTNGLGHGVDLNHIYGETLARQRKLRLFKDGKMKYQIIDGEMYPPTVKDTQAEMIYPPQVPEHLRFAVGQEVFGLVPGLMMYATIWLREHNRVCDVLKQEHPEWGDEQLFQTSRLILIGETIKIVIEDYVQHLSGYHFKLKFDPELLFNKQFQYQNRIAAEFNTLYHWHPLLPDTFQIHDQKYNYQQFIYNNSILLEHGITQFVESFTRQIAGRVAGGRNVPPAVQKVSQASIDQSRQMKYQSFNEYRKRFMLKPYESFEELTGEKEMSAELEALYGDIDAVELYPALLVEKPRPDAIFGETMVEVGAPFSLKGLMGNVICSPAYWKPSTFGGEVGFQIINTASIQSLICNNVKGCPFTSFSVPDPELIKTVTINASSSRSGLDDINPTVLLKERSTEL
The class given is biochemical. The note with it: 20 μM, incubation 10 min. As for the experimental part: (§4) COX-1/2 inhibition was evaluated in an established assay on isolated isoenzymes. After incubation with the drugs (concentration: 20 μM) for 10 min, the remaining COX activity was measured by an enzyme-linked immunosorbent assay (ELISA).
(§5) The incubation time of the compounds with the respective isoenzymes was exactly 10 min. The results are presented as the mean ± SEM of three independent experiments, with two replicates of each experiment. […] Graphs were drawn using GraphPad Prism 8.0.

The target in the next data set is T2, human recombinant COX-1 (Homo sapiens, UniProt P23219).
T2 construct: purchased Cayman Chemicals
The format is biochemical. The settings on record: 20 μM, incubation 10 min. As for the experimental part: as §4, §5

Another data set is described as follows: Water solubility. The format is physicochemical.

T2 sequence (P23219 24-599): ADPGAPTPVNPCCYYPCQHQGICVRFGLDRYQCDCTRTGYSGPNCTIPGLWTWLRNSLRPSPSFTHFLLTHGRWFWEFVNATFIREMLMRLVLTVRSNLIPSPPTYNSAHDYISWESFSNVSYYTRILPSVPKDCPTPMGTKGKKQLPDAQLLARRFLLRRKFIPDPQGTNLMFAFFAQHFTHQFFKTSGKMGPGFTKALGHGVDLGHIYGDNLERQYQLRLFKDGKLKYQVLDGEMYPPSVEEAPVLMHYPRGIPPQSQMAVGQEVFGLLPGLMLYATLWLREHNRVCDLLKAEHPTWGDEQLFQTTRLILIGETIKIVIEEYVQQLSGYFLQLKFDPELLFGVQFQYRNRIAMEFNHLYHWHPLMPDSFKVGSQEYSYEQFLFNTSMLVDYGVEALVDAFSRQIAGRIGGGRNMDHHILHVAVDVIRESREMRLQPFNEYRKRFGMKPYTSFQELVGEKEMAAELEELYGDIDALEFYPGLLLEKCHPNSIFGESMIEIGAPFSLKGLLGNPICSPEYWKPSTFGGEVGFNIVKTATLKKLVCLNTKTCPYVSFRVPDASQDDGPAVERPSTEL

A word on the IC50: it is the concentration needed to halve the response being measured. As for `C=C.O.[Cl][Pt-]([Cl])[Cl].[K+]` [Zeise’s salt, K[PtCl3(C2H4)]], the 50% inhibitory concentration (IC50) in the data set with TSA-201 cells, with MCF-7 cells and with SKBr3 cells was more than 20 µM each time. For the same compound, in the data set with COX-2, the COX-2 inhibition entry is “inactive”. For the same compound, the “stability in DMSO-d6” value in data set [1] was “gas bubbling occurred from the released ethylene”. The COX-1 inhibition in the data set on COX-1 was 100%. In addition, the “cytotoxicity against tumor cells in vitro” value in the data set with tumor cells was “no cytotoxicity”. In addition, on human recombinant COX-2, the “% COX-2 inhibition” value was found to be 0%. Further, on human recombinant COX-1, the “% COX-1 inhibition” value was found to be 83%.
Consider “Potassium trichlorido[η^2-(prop-2-en-1-yl (E)-3-(4-((E/Z)-1-(4-hydroxyphenyl)-2-phenylbut-1-en-1-yl)phenyl)acrylate)]platinate(II) [GW7604-Prop-PtCl3]”, for which the water solubility result in the data set “Water solubility” is on record as “does not have sufficient water solubility”.
